This passage reports IC50 results from US12509454B2, “Thiadiazolyl derivatives” (IDEAYA Biosciences, Inc., priority 2019, dated 2025).

Each structure is given as a SMILES string.

This assay addresses Pol theta (1-899) (Homo sapiens (Human), UniProt O75417). The assay can be described thus: Pol theta ATPase activity, NADH oxidation-coupled enzymatic assay. The format is biochemical. The settings on record: Pol theta (1-899) 10 nM, ATP, dT50 ssDNA, absorbance 340 nm, 10-point dilution series; read-out: ATPase NADH coupling:Standard Screening:hPolQ IC50. The method, then: The ability of the compounds of Formula (I) to inhibit ATPase activity of Pol theta (1-899) was determined using the assay described below.
Pol Theta ATPase activity was determined by measuring the rate of ATP turn over in a NADH oxidation-coupled enzymatic assay. 10-point dilution series of compounds were used in a 384 well format for the inhibition assays. Pol theta (1-899) (10 nM) in assay buffer (20 mM Tris HCl (pH 7.80), 80 mM KCl, 10 mM MgCl2, 1 mM DTT, 0.01% BSA, 0.01% Tween, 5% glycerol) was transferred to the test wells (20 μL), except the low control wells (20 μL of assay buffer was added to the low control wells). The plate was then incubated at room temperature for 15 min. An equal volume (20 μL) of 100 μM ATP, 300 nM dT50 (single-stranded DNA (ssDNA) containing 50 thymine bases), 300 μM NADH, 6 mM PEP, 10 U/mL lactate dehydrogenase and 20 U/mL pyruvate kinase in assay buffer was added to all the test wells. The plate was then centrifuged at 1000 rpm for 1 min. The reaction was monitored for 30 min by measuring absorbance (λ=340 nm) in a Tecan Spark multimode plate reader every minute. The high control (DMSO with enzyme) with low absorbance intensity represents no inhibition of ATPase reaction while the low control (DMSO with buffer) with high absorbance intensity represents full inhibition of ATPase activity. Slope of the reaction progress curves were used to calculate the rate of ATP hydrolysis. The rates were used to determine the percent inhibition using a four-parameter inhibition model to generate IC50, Hill slope and max inhibition.

Chain of Pol theta (1-899) (O75417 1-899): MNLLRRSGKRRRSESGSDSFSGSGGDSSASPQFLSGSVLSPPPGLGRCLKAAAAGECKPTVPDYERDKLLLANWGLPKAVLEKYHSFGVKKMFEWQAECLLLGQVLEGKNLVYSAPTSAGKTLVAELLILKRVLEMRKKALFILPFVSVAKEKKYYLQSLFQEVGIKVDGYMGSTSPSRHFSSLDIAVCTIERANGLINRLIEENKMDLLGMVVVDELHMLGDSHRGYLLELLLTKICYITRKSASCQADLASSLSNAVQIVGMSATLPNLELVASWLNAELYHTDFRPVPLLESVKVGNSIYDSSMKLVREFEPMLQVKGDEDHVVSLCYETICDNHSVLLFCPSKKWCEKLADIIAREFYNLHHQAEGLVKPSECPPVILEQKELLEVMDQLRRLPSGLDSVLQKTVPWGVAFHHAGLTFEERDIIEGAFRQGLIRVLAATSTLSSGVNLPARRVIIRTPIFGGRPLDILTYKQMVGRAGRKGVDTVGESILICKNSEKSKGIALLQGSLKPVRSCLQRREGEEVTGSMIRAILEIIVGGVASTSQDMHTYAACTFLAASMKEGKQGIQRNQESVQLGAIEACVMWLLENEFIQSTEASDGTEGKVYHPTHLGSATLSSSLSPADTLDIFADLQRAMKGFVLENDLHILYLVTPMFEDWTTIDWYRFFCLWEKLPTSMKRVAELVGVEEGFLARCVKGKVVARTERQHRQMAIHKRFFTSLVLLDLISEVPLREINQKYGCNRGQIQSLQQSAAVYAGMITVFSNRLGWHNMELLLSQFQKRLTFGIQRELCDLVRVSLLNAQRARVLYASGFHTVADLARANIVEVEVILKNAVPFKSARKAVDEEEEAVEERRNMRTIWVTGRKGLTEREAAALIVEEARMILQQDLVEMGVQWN

For the molecule `O=C1CCN(c2ncccc2C(=O)Nc2nnc(OCc3ccc(Cl)cc3)s2)CCN1` [Example 61, N-(5-((4-chlorobenzyl)oxy)-1,3,4-thiadiazol-2-yl)-2-(5-oxo-1,4-diazepan-1-yl)nicotinamide], the half-maximal inhibitory concentration (IC50) lay in the range of 500 to 1000 nM.

For `COc1cccc(F)c1-c1cc(CO)ncc1C(=O)Nc1nnc(OCc2ccc(Cl)cn2)s1` [Example 206, N-[5-[(5-chloropyridin-2-yl)methoxy]-1,3,4-thiadiazol-2-yl]-4-(2-fluoro-6-methoxyphenyl)-6-(hydroxymethyl)pyridine-3-carboxamide], the IC50 was at most 200 nM.

Regarding `COc1ccccc1-c1cc(CCC#N)ncc1C(=O)Nc1nnc(OCc2ccc(Cl)cc2)s1` [Example 164, N-[5-[(4-chlorophenyl)methoxy]-1,3,4-thiadiazol-2-yl]-6-(2-cyanoethyl)-4-(2-methoxyphenyl)pyridine-3-carboxamide], the IC50 was at most 200 nM.

On to `COc1ccncc1-c1cnccc1C(=O)Nc1nnc(OCc2ccc(Cl)cc2)s1` [Example 133, N-(5-((4-chlorobenzyl)oxy)-1,3,4-thiadiazol-2-yl)-4′-methoxy-[3,3′-bipyridine]-4-carboxamide], for which the IC50 fell in the range of 500 to 1000 nM.

For the molecule `O=C(Nc1nnc(OCc2ccc(-c3ncco3)cc2)s1)c1cccnc1N1CCOCC1` [Example 65, 2-morpholino-N-(5-((4-(oxazol-2-yl)benzyl)oxy)-1,3,4-thiadiazol-2-yl)nicotinamide], the IC50 is 1000 to 10000 nM.

For `COc1ccc(-n2cncc2C(=O)Nc2nnc(OCc3ccc(Cl)cc3)s2)c(OC)c1` [Example 31, N-(5-((4-chlorobenzyl)oxy)-1,3,4-thiadiazol-2-yl)-1-(2,4-dimethoxyphenyl)-1H-imidazole-5-carboxamide], the IC50 is at most 200 nM.

In the case of `COc1ccc(C#N)cc1-c1cnccc1C(=O)Nc1nnc(OCc2ccc(Cl)cc2)s1` [Example 123, N-(5-((4-chlorobenzyl)oxy)-1,3,4-thiadiazol-2-yl)-3-(5-cyano-2-methoxyphenyl)isonicotinamide], the IC50 is at most 200 nM.

For `Cc1cc(-c2cccc3c2OC(F)(F)O3)c(C(=O)Nc2nnc(OCc3ccc(Cl)cn3)s2)cn1` [Example 208, N-(5-((5-chloropyridin-2-yl)methoxy)-1,3,4-thiadiazol-2-yl)-4-(2,2-difluorobenzo[d][1,3]dioxol-4-yl)-6-methylnicotinamide], the IC50 is at most 200 nM.

On to `COc1ccccc1-c1cnccc1C(=O)Nc1nnc(OCc2ccc(Cl)cc2)s1` [Example 95, N-(5-((4-chlorobenzyl)oxy)-1,3,4-thiadiazol-2-yl)-3-(2-methoxyphenyl)isonicotinamide], for which the IC50 is at most 200 nM.

For `O=C(Nc1nnc(OCc2ccc(Cl)cc2)s1)c1cccnc1N1CCOCC1` [Example 2, N-(5-((4-chlorobenzyl)oxy)-1,3,4-thiadiazol-2-yl)-2-morpholinonicotinamide], the IC50 fell in the range of 500 to 1000 nM.

For the molecule `O=C(Nc1nnc(OCc2ccc(Cl)cc2)s1)c1ccncc1-c1ccccc1OC1CC(O)C1` (centres unmarked) [Example 165, N-(5-((4-chlorobenzyl)oxy)-1,3,4-thiadiazol-2-yl)-3-(2-(3-hydroxycyclobutoxy)phenyl)isonicotinamide], the IC50 is at most 200 nM.

For the molecule `O=C(Nc1nnc(OCc2ccc(Cl)cc2)s1)c1c[nH]c(=O)cc1N1CCOCC1` [Example 41, N-(5-((4-chlorobenzyl)oxy)-1,3,4-thiadiazol-2-yl)-4-morpholino-6-oxo-1,6-dihydropyridine-3-carboxamide or its tautomer N-(5-((4-chlorobenzyl)oxy)-1,3,4-thiadiazol-2-yl)-6-hydroxy-4-morpholinonicotinamide], the IC50 is 1000 to 10000 nM.

Regarding `COc1ccccc1-c1ccncc1C(=O)Nc1nnc(OCc2ccc(Br)cn2)s1` [Example 97, N-(5-((5-bromopyridin-2-yl)methoxy)-1,3,4-thiadiazol-2-yl)-4-(2-methoxy-phenyl)nicotinamide], the IC50 is at most 200 nM.

For `O=C(Nc1nnc(OCc2ccc(Cl)cc2)s1)c1cccnc1-c1ccc(=O)[nH]c1` [Example 79, N-(5-((4-chlorobenzyl)oxy)-1,3,4-thiadiazol-2-yl)-6′-oxo-1′,6′-dihydro-[2,3′-bipyridine]-3-carboxamide or its tautomer N-(5-((4-chlorobenzyl)oxy)-1,3,4-thiadiazol-2-yl)-6′-hydroxy-[2,3′-bipyridine]-3-carboxamide], the IC50 is 500 to 1000 nM.

Turning to `N#Cc1ccccc1-c1cnccc1C(=O)Nc1nnc(OCc2ccc(Cl)cc2)s1` [Example 126, N-(5-((4-chlorobenzyl)oxy)-1,3,4-thiadiazol-2-yl)-3-(2-cyanophenyl)isonicotinamide], the IC50 was at most 200 nM.

As to `N#Cc1ccc(C(=O)Nc2nnc(OCc3ccc(Br)cc3)s2)c(N2CCNC(=O)C2)n1` [Example 88, N-(5-((4-bromobenzyl)oxy)-1,3,4-thiadiazol-2-yl)-6-cyano-2-(3-oxopiperazin-1-yl)nicotinamide], the IC50 was at most 200 nM.

Consider `CN1CCOc2c(-c3cnccc3C(=O)Nc3nnc(OCc4ccc(Cl)cc4)s3)cccc21` [Example 139, N-[5-[(4-chlorophenyl)methoxy]-1,3,4-thiadiazol-2-yl]-3-(4-methyl-2,3-dihydro-1,4-benzoxazin-8-yl)pyridine-4-carboxamide], for which the half-maximal inhibitory concentration (IC50) is at most 200 nM.

For the molecule `CC(=O)N1CCN(c2ncccc2C(=O)Nc2nnc(OCc3ccc(Cl)cc3)s2)CC1` [Example 16, 2-(4-acetylpiperazin-1-yl)-N-(5-((4-chlorobenzyl)oxy)-1,3,4-thiadiazol-2-yl)nicotinamide], the IC50 was 1000 to 10000 nM.

As to `N#Cc1cc(N2CCOC3(CC3)C2)c(C(=O)Nc2nnc(OCc3ccc(Cl)cc3)s2)cn1` [Example 177, N-[5-[(4-chlorophenyl)methoxy]-1,3,4-thiadiazol-2-yl]-6-cyano-4-[4-oxa-7-azaspiro[2.5]octan-7-yl]pyridine-3-carboxamide], the IC50 was at most 200 nM.

With `COc1ccccc1-c1cnccc1C(=O)Nc1nnc(OCc2ccc(Cl)c3c2cnn3C)s1` [Example 146, N-[5-[(7-chloro-1-methylindazol-4-yl)methoxy]-1,3,4-thiadiazol-2-yl]-3-(2-methoxyphenyl)pyridine-4-carboxamide], the IC50 was at most 200 nM.

In the case of `O=C(Nc1nnc(OCc2ccc(Cl)cc2)s1)c1ccncc1-c1cccc2ncoc12` [Example 111, 3-(benzo[d]oxazol-7-yl)-N-(5-((4-chlorobenzyl)oxy)-1,3,4-thiadiazol-2-yl)isonicotinamide], the IC50 was at most 200 nM.

Take `C[C@@H]1C(=O)NCCN1c1cnccc1C(=O)Nc1nnc(OCc2ccc(Cl)cn2)s1` (racemic) [Example 179, (S)—N-(5-((5-chloropyridin-2-yl)methoxy)-1,3,4-thiadiazol-2-yl)-3-(2-methyl-3-oxopiperazin-1-yl)isonicotinamide and (R)—N-(5-((5-chloropyridin-2-yl)methoxy)-1,3,4-thiadiazol-2-yl)-3-(2-methyl-3-oxopiperazin-1-yl)isonicotinamide]: the IC50 was at most 200 nM.

With `Cc1cc(-c2c(C)n[nH]c2C)c(C(=O)Nc2nnc(OCc3ccc(Cl)cn3)s2)cn1` [Example 196, N-(5-((5-chloropyridin-2-yl)methoxy)-1,3,4-thiadiazol-2-yl)-4-(3,5-dimethyl-1H-pyrazol-4-yl)-6methylnicotinamide], the IC50 was at most 200 nM.

Usually IC50 stands for the concentration at which inhibition is half-maximal.
